Laboratory results reported in patent publication US20240148821A1, “PHARMACEUTICAL USE OF CYCLIC PEPTIDE COMPOUND” (CHUGAI SEIYAKU KABUSHIKI KAISHA, priority 2021, published 2024).
Numbered stars: 1 amine (or outer) side, 2 acyl side, 3 side chain; on linkers, the order of the positions; unused ones are H or OH. Bridge positions count the residues as written; N and C are the ends. Square brackets hold non-standard residues; d marks the D form. Peptide text beside a SMILES is read from it. * marks the point of attachment. hPhe(3-Cl-4-CF3) = N[C@@H](CCc1ccc(C(F)(F)F)c(Cl)c1)C(=O)O; hPhe(3-F,4-CF3) = N[C@@H](CCc1ccc(C(F)(F)F)c(F)c1)C(=O)O; NMePhe(4-Cl) = CN[C@@H](Cc1ccc(Cl)cc1)C(=O)O; NMePhe(4-Me) = CN[C@@H](Cc1ccc(C)cc1)C(=O)O; NMeNle(6-CHF2) = CN[C@@H](CCCCC(F)F)C(=O)O; Phe(3-I) = N[C@@H](Cc1cccc(I)c1)C(=O)O; X26 = CC(C)=CC[C@H](N[*:1])C(=O)[*:2]; NMe3Pal = CN[C@@H](Cc1cccnc1)C(=O)O; NMeCha = CN[C@@H](CC1CCCCC1)C(=O)O; NMeAllylGly = C=CC[C@H](NC)C(=O)O; NMeChg = CN[C@H](C(=O)O)C1CCCCC1; NMeF = CN[C@@H](Cc1ccccc1)C(=O)O; Gly(cPr) = N[C@H](C(=O)O)C1CC1; NMeD = CN[C@@H](CC(=O)O)C(=O)O; NMeL = CN[C@@H](CC(C)C)C(=O)O; NMeV = CN[C@H](C(=O)O)C(C)C; d(β3hA) = C[C@@H](N)CC(=O)O; Ac6c = NC1(C(=O)O)CCCCC1; NMeA = CN[C@@H](C)C(=O)O; NMeAib = CNC(C)(C)C(=O)O; Piperidide = C1CCN(*)CC1; Pyrrolidide = C1CCN(*)C1; Ac5c = NC1(C(=O)O)CCCC1; Aze = O=C(O)[C@@H]1CCN1; Aib = CC(C)(N)C(=O)O; βAla = NCCC(=O)O; Sar = CNCC(=O)O

What follows are molecules tested on Human pancreatic cancer cell line AsPC-1 (G12D mutation Kras) (assay: AsPC-1 cell growth inhibition (AsPC-1 CGI)). Details: read-out: AsPC-1 cell growth inhibition, 50% growth inhibitory concentration (IC50 value); 96 hours, CellTiter-Glo, values classified in ranges.
Type: cell-based
Description: Test compounds were serially dilated with dimethyl sulfoxide, and 200 nL was then dispensed to a U-bottom 96-well plate using Labcyte Echo. […] The cell suspension was dispensed to a. plate containing a test compound at 100 μL per well and incubated at 37° C. in a 5% carbon dioxide gas incubator. 96 hours later, 80 μL of CellTiter-Glo (Promega) was added to each well and fluorescence was measured.

| Compound | IC50 |
| --- | --- |
| CC[C@H](C)[C@@H]1NC(=O)CCNC(=O)[C@H](Cc2ccccc2)N(C)C(=O)[C@H](C2CCCCC2)N(C)C(=O)C2(CCCC2)NC(=O)[C@@H]2CCCN2C(=O)[C@H](CCc2ccc(C(F)(F)F)c(Cl)c2)NC(=O)CN(C)C(=O)[C@H](CC2CCCCC2)N(C)C(=O)CN(C)C(=O)CN(C)C1=O [Compound 1007] (cyclo([Ac5c][NMeChg][NMeF][βAla]I[Sar][Sar][NMeCha][Sar][hPhe(3-Cl-4-CF3)]P)) | > 500 nM |
| CC[C@H](C)[C@@H]1NC(=O)[C@H](CC(C)C)N(C)C(=O)C[C@@H](C(=O)N2CCCC2)N(C)C(=O)[C@H](CC(C)C)NC(=O)C(C)(C)N(C)C(=O)[C@H](CC(C)C)NC(=O)[C@H](CCc2ccc(C(F)(F)F)c(F)c2)NC(=O)CN(C)C(=O)[C@H](CC2CCCCC2)N(C)C(=O)CN(C)C(=O)CN(C)C1=O [Compound 312] ([NMeL]I[Sar][Sar][NMeCha][Sar][hPhe(3-F,4-CF3)]L[NMeAib]L[NMeD]-Pyrrolidide; lactam N-11) | > 500 nM |
| CC[C@H](C)[C@@H]1NC(=O)[C@H](CC(C)C)N(C)C(=O)C[C@@H](C(=O)N2CCCCC2)N(C)C(=O)[C@H](CC(C)C)NC(=O)C(C)(C)N(C)C(=O)[C@H](Cc2ccc(OC)cc2)NC(=O)[C@H](Cc2cccc(I)c2)NC(=O)CN(C)C(=O)[C@H](Cc2ccc(C)cc2)N(C)C(=O)CN(C)C(=O)CN(C)C1=O [Compound 247] ([NMeL]I[Sar][Sar][NMePhe(4-Me)][Sar][Phe(3-I)]Y(Me)[NMeAib]L[NMeD]-Piperidide; lactam N-11) | > 500 nM |
| CC[C@H](C)[C@@H]1NC(=O)[C@H](C)N(C)C(=O)C[C@@H](C(=O)N2CCCCC2)N(C)C(=O)[C@H](C2CCCCC2)N(C)C(=O)C2(CCCC2)NC(=O)[C@H](Cc2cccnc2)N(C)C(=O)[C@H](CCc2ccc(C(F)(F)F)c(Cl)c2)NC(=O)CN(C)C(=O)[C@H](CC2CCCCC2)N(C)C(=O)[C@@H]2CCCN2C(=O)CN(C)C1=O [Compound 433] ([NMeA]I[Sar]P[NMeCha][Sar][hPhe(3-Cl-4-CF3)][NMe3Pal][Ac5c][NMeChg][NMeD]-Piperidide; lactam N-11) | > 500 nM |
| CC(C)C[C@H]1C(=O)N[C@@H](C2CC2)C(=O)N(C)CC(=O)N(C)CC(=O)N(C)[C@@H](CC2CCCCC2)C(=O)N(C)CC(=O)N[C@@H](CCc2ccc(C(F)(F)F)c(Cl)c2)C(=O)N2CCC[C@H]2C(=O)NC2(CCCC2)C(=O)N(C)[C@@H](C(C)C)C(=O)N(C)[C@H](C(=O)N2CCCCC2)CC(=O)N1C [Compound 533] ([NMeL][Gly(cPr)][Sar][Sar][NMeCha][Sar][hPhe(3-Cl-4-CF3)]P[Ac5c][NMeV][NMeD]-Piperidide; lactam N-11) | > 500 nM |
| CC[C@H](C)[C@@H]1NC(=O)[C@H](CC(C)C)N(C)C(=O)C[C@@H](C)NC(=O)[C@H](CC(C)C)N(C)C(=O)C2(CCCCC2)NC(=O)[C@@H]2CCCN2C(=O)[C@H](CCc2ccc(C(F)(F)F)c(F)c2)NC(=O)CN(C)C(=O)[C@H](CC2CCCCC2)N(C)C(=O)CN(C)C(=O)CN(C)C1=O [Compound 231] (cyclo([Ac6c][NMeL][d(β3hA)][NMeL]I[Sar][Sar][NMeCha][Sar][hPhe(3-F,4-CF3)]P)) | > 500 nM |
| CC[C@H](C)[C@@H]1NC(=O)[C@H](CC(C)C)N(C)C(=O)C[C@@H](C(=O)N2CCCCC2)N(C)C(=O)[C@H](CC(C)C)NC(=O)C(C)(C)N(C)C(=O)[C@H](CC=C(C)C)NC(=O)[C@H](Cc2cccc(I)c2)NC(=O)CN(C)C(=O)[C@H](Cc2ccc(Cl)cc2)N(C)C(=O)[C@@H]2CCN2C(=O)[C@H](C)N(C)C1=O [Compound 1419] ([NMeL]I[NMeA][Aze][NMePhe(4-Cl)][Sar][Phe(3-I)][X26][NMeAib]L[NMeD]-Piperidide; lactam N-11) | > 500 nM |
| C=CC[C@H]1C(=O)NC2(CCCC2)C(=O)N(C)[C@@H](C2CCCCC2)C(=O)N(C)[C@H](C(=O)N2CCCCC2)CC(=O)N(C)[C@@H](CC(C)C)C(=O)N[C@@H]([C@@H](C)CC)C(=O)N(C)CC(=O)N(C)CC(=O)N(C)[C@@H](CC2CCCCC2)C(=O)N(C)CC(=O)N[C@@H](CCc2ccc(C(F)(F)F)c(Cl)c2)C(=O)N1C [Compound 1449] ([NMeL]I[Sar][Sar][NMeCha][Sar][hPhe(3-Cl-4-CF3)][NMeAllylGly][Ac5c][NMeChg][NMeD]-Piperidide; lactam N-11 (inferred); C-terminus assumed) | > 500 nM |
| CC[C@H](C)[C@@H]1NC(=O)[C@H](CC(C)C)N(C)C(=O)C[C@@H](C(=O)N2CCCC2)NC(=O)[C@H](CC(C)C)N(C)C(=O)C(C)(C)NC(=O)[C@H](CC(C)C)N(C)C(=O)[C@H](CCc2ccc(C(F)(F)F)c(F)c2)NC(=O)CN(C)C(=O)[C@H](CCCCC(F)F)N(C)C(=O)CN(C)C(=O)CN(C)C1=O [Compound 1455] ([NMeL]I[Sar][Sar][NMeNle(6-CHF2)][Sar][hPhe(3-F,4-CF3)][NMeL][Aib][NMeL]D-Pyrrolidide; lactam N-11) | > 500 nM |
| CC[C@H](C)[C@@H]1NC(=O)[C@H](C)N(C)C(=O)C[C@@H](C(=O)N2CCCCC2)N(C)C(=O)[C@H](C(C)C)N(C)C(=O)C(C)(C)N(C)C(=O)[C@@H]2CCCN2C(=O)[C@H](CCc2ccc(C(F)(F)F)c(Cl)c2)NC(=O)CN(C)C(=O)[C@H](CC2CCCCC2)N(C)C(=O)CN(C)C(=O)CN(C)C1=O [Compound 507] ([NMeA]I[Sar][Sar][NMeCha][Sar][hPhe(3-Cl-4-CF3)]P[NMeAib][NMeV][NMeD]-Piperidide; lactam N-11) | > 500 nM |
